Results on eleven compounds are retold here after PubChem BioAssay (NCI).

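Compound exposure: 48 hours, 5 concentrations, 96-well plates. GI50 marks 50% less growth. Definition used: TGI = concentration required for complete inhibition of growth.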

What all share (assay): NCI tumour cell line growth inhibition, 48 h
Assay [1] concerns SNB-78 CNS.
Assay [2] relates to RPMI-8226 leukemia.
The test system of assay [3] is SK-OV-3 ovarian.
Assay [4] concerns HOP-92 NSCLC.
The test system of assay [5] is HL-60(TB) leukemia.
Assay [6] concerns MOLT-4 leukemia.
Assay [7] relates to EKVX NSCLC.
Assay [8] relates to SR leukemia.
Assay [9] deals with P388/ADR leukemia.
Assay [10] has as its system NCI/ADR-RES ovarian.
Assay [11] deals with PC-3 prostate.

For the compound `Cc1ccc(S(=O)(=O)Nc2cccc3c(=O)[nH]cnc23)cc1`, the TGI is greater than 100 µM in assay [1]; 97.7 µM in assay [2]; greater than 100 µM in [3]; greater than 100 µM in assay [4]; greater than 100 µM in assay [5]; greater than 100 µM in assay [6]. The TGI in assay [7] and in [8] was greater than 100 µM throughout.

For the compound `CN(C)CCNC(=O)c1cccc2c(=O)c3ccccc3oc12`, the TGI is 73.2 µM in [9]; greater than 100 µM in assay [1]; greater than 87.1 µM in assay [2]; greater than 100 µM in assay [3]; 60.1 µM in [4]; greater than 79.9 µM in assay [10]. In addition, the figures for the TGI in assay [5], in assay [6] and in assay [7] were greater than 90.6 µM, greater than 100 µM and greater than 86.9 µM, respectively.

Consider `COC1OC(CS(=O)(=O)O)C(O)C(O)C1O` (centres undefined), for which the TGI in assay [2], in [3], in assay [4], in [10], in assay [5] and in assay [6] was greater than 100 µM in each case. Moreover, the TGI in [11] and in [8] was greater than 100 µM in each case.

Take `O=C1C=C(C2OC(CO)C(O)C2O)C(=O)N1` (centres undefined): the TGI is 68.5 µM in [9]; greater than 100 µM in assay [1]; greater than 87.8 µM in [2]; greater than 100 µM in [3]; greater than 100 µM in [4]; greater than 100 µM in assay [10]. Moreover, the TGI in [5], in [6] and in [7] was greater than 100 µM throughout.

In the case of `C=C1C(=O)OC2/C=C(\C(=O)O)CC/C=C(\C)CC(OC(=O)/C=C(\C)CC)C12` (centres undefined), the TGI in [1] is 61 µM; in [2], greater than 100 µM; in assay [3], 37.9 µM; in assay [4] it was 36.8 µM; in assay [5], greater than 100 µM; in [6], greater than 100 µM. Besides, the figures for the TGI in [7] and in [8] were 59.3 µM and greater than 100 µM, respectively.

With `O=C(c1ccccc1)c1ccc2n[se]nc2c1`, the TGI is greater than 100 µM in assay [1]; greater than 100 µM in assay [2]; greater than 100 µM in assay [3]; 25.9 µM in assay [5]; greater than 100 µM in assay [6]; greater than 100 µM in assay [7].

In the case of `CC1(C)[C@@H]2CC[C@]1(C)[C@H](OC(=O)CSC#N)C2`, the TGI in assay [3], in assay [4], in assay [10], in assay [7] and in assay [11] was greater than 100 µM in each case.

In the case of `CC1=C2C(O)C(C(C)C(=O)N(C)C)CCC2(C)C=CC1=O` (centres undefined), the TGI in assay [9], in assay [1], in [2], in [3], in assay [4] and in assay [10] was greater than 100 µM in each case. The TGI in assay [5], in assay [6] and in assay [7] was greater than 100 µM throughout.

As to `CC(=O)C(C(c1ccccc1)N1CCOCC1)N1CCOCC1` (centres undefined), the TGI in assay [2], in assay [3], in assay [4], in [10], in assay [5] and in assay [6] was greater than 100 µM throughout. For the same compound, the TGI in assay [7], in [11] and in [8] was greater than 100 µM throughout.

Turning to `CCCC(C)c1ccc(OCCCCCCN2CCNCC2)cc1` (centres undefined), the GI50 in assay [3] was 2.57 µM; in assay [4], 1.54 µM; in assay [10], 2.22 µM; in [5] it was 1.75 µM; in assay [6] it was 1.52 µM; in assay [7], 2.34 µM. The GI50 was 2.02 µM in assay [11] and 1.7 µM in [8]. The TGI is 7.12 µM in assay [3]; 6.7 µM in assay [4]; 5.37 µM in assay [10]; 3.54 µM in [5]; 3.48 µM in assay [6]; 6.63 µM in assay [7]. For the same compound, the TGI in assay [11] was found to be 4.94 µM; in [8] it was 4.21 µM.

`CCOP(=Nc1ccc(N(C)C)cc1)(OCC)OCC`: the TGI in [2], in assay [3], in [4], in assay [10], in assay [6] and in assay [7] was greater than 100 µM each time. In [11], the TGI was greater than 100 µM.
